Experimental data from patent US6800635B2, “Crystalline form II of cabergoline” (Pharmacia Italia, S.p.A., priority 2000, dated 2004).

Assay: Relative thermodynamic stability of cabergoline polymorphs (slurry of a mixture of forms I and II)
Format: physicochemical
Conditions: range of temperature between −70 and +30° C.; compared with Form I
Protocol: It can be readily prepared starting from crude material by crystallization from several solvents at low temperatures. Alternatively it can be prepared by slurry of a mixture of forms I and II in a solvent at a temperature below 30° C. The importance of cabergoline form II rests primarily (but not exclusively) in its thermodynamic stability.
Crystalline Form II cabergoline may be also prepared by subjecting a mixture of crystal forms I and II of cabergoline to a slurry procedure at a temperature below 30° C. Preferably, the mixture is stirred at room temperature in organic aliphatic linear C4-7 alkanes or C4-C5 ethers such as n-hexane or diethyl ether. In the mixture, the Form I/Form II ratio is preferably from 10:1 to 1:10. The resultant crystals were collected as above described.
A mixture of 200 mg of form I and of an equal amount of form II was added to 50 ml of n-hexane at 25° C. The suspension was stirred for about 12 hours, then filtered using a glass filter under vacuum. The collected crystals were identified by analytical methods as pure form II. The analytical data were the same of example 1.
A mixture of 50 mg of form I and of 350 mg of form II was added to 5 ml of diethyl ether at −5° C. The suspension was stirred for about 12 hours, then filtered using a glass filter under vacuum. The collected crystals were identified by analytical methods as pure form II. […]

C=CCN1C[C@H](C(=O)N(CCCN(C)C)C(=O)NCC)C[C@@H]2c3cccc4[nH]cc(c34)C[C@H]21 [Form II, 1((6-allylergolin-8Beta-yl)-carbonyl)-1-(3-dimethylaminopropyl)-3-ethylurea]
thermodynamic stability of the polymorph: thermodynamically most stable polymorph
